Experimental data reported in patent US9975861B2, “Dual inhibitor compounds for use in the treatment of neurodegenerative disorders and alzheimer's disease” (FONDAZIONE ISTITUTO ITALIANO DI TECNOLOGIA, priority 2014, dated 2018).

Key:
[1] = tested on: triggering receptor expressed on myeloid cells 2 (TREM2); assay: Western blot analysis of TREM2 (M2 marker) in LPS-treated microglia cells; format: cell-based, rat; settings: LPS 100 ng/mL, 24 hours co-treatment; microglia cells (FIG. 5c)
Experimental: Mixed glial cell cultures were prepared from cerebral cortex of newborn Wistar rats (Rattus norvegicus), as previously described [Monti, B.; D'Alessandro, C.; Farini, V.; Bolognesi, A.; Polazzi, E.; Contestabile, A.; Stirpe, F.; Battelli, M. G. In vitro and in vivo toxicity of type 2 ribosome-inactivating proteins lanceolin and stenodactylin on glial and neuronal cells. Neurotoxicology 2007, 28, 637-644]. Briefly, brain tissue was cleaned from meninges, trypsinized for 15 minutes at 37° C. and, after mechanical dissociation, the cell suspension was washed and plated on poly-L-lysine (Sigma-Aldrich, St. Louis, Mo., USA, 10 μg/mL) coated flasks (75 cm^2). Mixed glial cells were cultured for 10-13 days in Basal Medium Eagle (BME, Life technologies Ltd, Paisley, UK) supplemented with 100 mL/L heat-inactivated FBS (Life technologies), 2 mmol/L glutamine (Sigma-Aldrich) and 100 μmol/L gentamicin sulfate (Sigma-Aldrich).
Microglial cells were harvested from mixed glial cell cultures by mechanical shaking, resuspended in fresh medium without serum and plated on uncoated 35 mm Ø dishes at a density of 1.5×10^6 cells/1.5 mL medium/well for western blot analysis or on 96 wells at 1×10^5 cells/0.2 mL medium/well for MTT assay. […]
J. Biol. Chem. 1951, 193, 265-275]. […] Labelled proteins were detected by using the enhanced chemiluminescence method (ECL; Bio-RAD). […]

β-secretase (BACE-1) = β-secretase (BACE-1) (Homo sapiens (Human), UniProt P56817); assay: Inhibition of BACE-1 (fluorogenic APP-mimicking peptide substrate); settings: BACE-1 IC50 (μM), substrate 3 μM, 1 hour pre-incubation at rt, 15 minutes at 37° C.
Chain of β-secretase (BACE-1) (P56817 46-501): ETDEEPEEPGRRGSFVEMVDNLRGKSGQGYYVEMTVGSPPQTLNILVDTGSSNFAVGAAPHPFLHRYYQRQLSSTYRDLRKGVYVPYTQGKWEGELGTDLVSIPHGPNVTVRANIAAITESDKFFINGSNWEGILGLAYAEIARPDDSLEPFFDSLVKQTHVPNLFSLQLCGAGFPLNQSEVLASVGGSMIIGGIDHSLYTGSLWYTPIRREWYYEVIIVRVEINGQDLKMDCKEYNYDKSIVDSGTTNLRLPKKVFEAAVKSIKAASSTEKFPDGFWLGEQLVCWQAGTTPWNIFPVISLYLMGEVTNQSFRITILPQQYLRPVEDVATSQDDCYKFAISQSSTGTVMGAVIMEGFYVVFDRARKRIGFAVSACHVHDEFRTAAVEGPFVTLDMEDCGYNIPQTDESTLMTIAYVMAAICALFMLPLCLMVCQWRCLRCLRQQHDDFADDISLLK
Experimental: β-secretase (BACE-1, Sigma-Aldrich) inhibition studies were performed by employing a peptide mimicking APP sequence as substrate (Methoxycoumarin-[sequence]dinitrophenyl, M-2420, Bachem, Germany). The following procedure was employed: 5 μL of test compounds (or DMSO, if preparing a control well) were pre-incubated with 175 μL of enzyme (in 20 mM sodium acetate containing 3-[(3-Cholamidopropyl)dimethylammonio]-1-propanesulfonate (CHAPS) 0.1% w/v) for 1 hour at rt. The substrate (3 μM, final concentration) was then added and left to react for 15 minutes at 37° C. The fluorescence signal was read at λem=405 nm (λexc=320 nm) using a Fluoroskan Ascent. […] The fluorescence intensities with and without inhibitor were compared and the percent inhibition due to the presence of test compounds was calculated. The background signal was measured in control wells containing all the reagents, except BACE-1 and subtracted. The % inhibition due to the presence of increasing test compound concentration was calculated by the following expression: 100−(IFi/IFo×100) where IFi and IFo are the fluorescence intensities obtained for BACE-1 in the presence and in the absence of inhibitor, respectively. […] The linear regression parameters were determined and the IC50 extrapolated (GraphPad Prism 4.0, GraphPad Software Inc.).

Human recombinant GSK-3β = Human recombinant GSK-3β (Homo sapiens (Human), UniProt P49841); assay: Inhibition of GSK-3β (Kinase-Glo luminescent kinase assay); format: biochemical; settings: 1 μM ATP, 25 μM substrate, 30 minutes at 30° C.
Chain of Human recombinant GSK-3β (P49841 whole entry): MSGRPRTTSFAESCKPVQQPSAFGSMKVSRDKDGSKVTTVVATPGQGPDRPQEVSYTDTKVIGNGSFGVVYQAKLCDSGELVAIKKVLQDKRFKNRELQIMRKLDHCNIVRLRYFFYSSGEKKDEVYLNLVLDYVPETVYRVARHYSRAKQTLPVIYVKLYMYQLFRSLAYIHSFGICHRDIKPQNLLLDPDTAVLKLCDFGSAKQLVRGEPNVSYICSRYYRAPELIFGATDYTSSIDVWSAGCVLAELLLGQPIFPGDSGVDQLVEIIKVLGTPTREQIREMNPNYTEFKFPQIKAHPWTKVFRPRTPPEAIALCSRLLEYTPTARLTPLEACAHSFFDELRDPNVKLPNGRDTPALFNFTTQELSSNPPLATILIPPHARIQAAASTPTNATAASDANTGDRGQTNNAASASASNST
Experimental: Human recombinant GSK-3β was purchased from Millipore (Millipore Iberica S.A.U.) The prephosphorylated polypeptide substrate was purchased from Millipore (Millipore Iberica SAU). Kinase-Glo Luminescent Kinase Assay was obtained from Promega (Promega Biotech Iberica, SL). ATP and all other reagents were from Sigma-Aldrich. Assay buffer contained 50 mM 4-(2-hydroxyethyl)-1-piperazineethanesulfonic acid (HEPES) (pH 7.5), 1 mM ethylenediaminetetraacetic acid (EDTA), 1 mM ethylene glycol tetraacetic acid (EGTA), and 15 mM magnesium acetate. The method developed by Baki was followed [Baki et al. Assay and Drug Development Technologies 2007, 5(1),75-83] to analyze the inhibition of GSK-3β. Kinase-Glo assays were performed in assay buffer using white 96-well plates. In a typical assay, 10 μL (10 μM) of test compound (dissolved in DMSO at 1 mM concentration and diluted in advance in assay buffer to the desired concentration) and 10 μL (20 ng) of enzyme were added to each well followed by 20 μL of assay buffer containing 25 μM substrate and 1 μM adenosine triphosphate (ATP). […] After a 30 minutes incubation at 30° C., the enzymatic reaction was stopped with 40 μL of Kinase-Glo reagent. Glow-type luminescence was recorded after 10 minutes using a Fluoroskan Ascent multimode reader.
The activity is proportional to the difference of the total and consumed ATP.

Row | Compound | TREM2 expression reduced by LPS [1] | IC50 (β-secretase (BACE-1)) [µM] | IC50 (Human recombinant GSK-3β) [µM]
1 | CCNC1=NC(c2ccc(F)cc2)NC(=O)N1 (racemic) [Example 3, 6-(ethylamino)-4-(4-fluorophenyl)-3,4-dihydro-1,3,5-triazin-2(1H)-one] | restored |  | 
2 | CCCNC1=NC(c2ccc(F)cc2)NC(=O)N1 (stereo not shown) [Example 6, 4-(4-fluorophenyl)-6-(propylamino)-3,4-dihydro-1,3,5-triazin-2(1H)-one] | restored | 36.8 ± 9.85 | 4.34 ± 0.63
